Reference: PubChem BioAssay (NCI)
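Cultured in 96-well plates, cells were exposed to test compound for 48 hours across five concentrations. TGI is the concentration that stops growth completely.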

Key:
Test in all cases: growth of human tumour cells (NCI), 48 h
MOLT-4 leukemia = tested on: MOLT-4 leukemia
SK-MEL-28 melanoma = tested on: SK-MEL-28 melanoma
OVCAR-8 ovarian = tested on: OVCAR-8 ovarian
MDA-MB-231 breast = tested on: MDA-MB-231 breast
NCI-H522 lung = tested on: NCI-H522 lung
UO-31 renal = tested on: UO-31 renal
HCT-116 colon = tested on: HCT-116 colon
SW-620 colon = tested on: SW-620 colon
NCI/ADR-RES ovarian = tested on: NCI/ADR-RES ovarian
EKVX NSCLC = tested on: EKVX NSCLC
RXF 393 renal = tested on: RXF 393 renal
U251 CNS = tested on: U251 CNS
SNB-75 CNS = tested on: SNB-75 CNS
UACC-62 melanoma = tested on: UACC-62 melanoma
HOP-92 NSCLC = tested on: HOP-92 NSCLC
OVCAR-4 ovarian = tested on: OVCAR-4 ovarian
SK-MEL-2 melanoma = tested on: SK-MEL-2 melanoma
HS 578T breast = tested on: HS 578T breast
MCF7 breast = tested on: MCF7 breast
HL-60(TB) leukemia = tested on: HL-60(TB) leukemia
SF-539 CNS = tested on: SF-539 CNS
NCI-H460 lung = tested on: NCI-H460 lung
MDA-N = tested on: MDA-N
MDA-MB-435 = tested on: MDA-MB-435
UACC-257 melanoma = tested on: UACC-257 melanoma
NCI-H226 lung = tested on: NCI-H226 lung
A498 renal = tested on: A498 renal
IGROV1 ovarian = tested on: IGROV1 ovarian
OVCAR-3 ovarian = tested on: OVCAR-3 ovarian
HCT-15 colon = tested on: HCT-15 colon
TK-10 renal = tested on: TK-10 renal
KM12 colon = tested on: KM12 colon
SF-268 CNS = tested on: SF-268 CNS
A549 NSCLC = tested on: A549 NSCLC
RPMI-8226 leukemia = tested on: RPMI-8226 leukemia
NCI-H23 lung = tested on: NCI-H23 lung
SN12C renal = tested on: SN12C renal
SR leukemia = tested on: SR leukemia
T-47D breast = tested on: T-47D breast
CCRF-CEM leukemia = tested on: CCRF-CEM leukemia
SF-295 CNS = tested on: SF-295 CNS
DU-145 prostate = tested on: DU-145 prostate
K-562 leukemia = tested on: K-562 leukemia
PC-3 prostate = tested on: PC-3 prostate
SK-MEL-5 melanoma = tested on: SK-MEL-5 melanoma
OVCAR-5 ovarian = tested on: OVCAR-5 ovarian
BT-549 breast = tested on: BT-549 breast
HOP-62 NSCLC = tested on: HOP-62 NSCLC
HCC-2998 colon = tested on: HCC-2998 colon
HT29 colon = tested on: HT29 colon
SNB-19 CNS = tested on: SNB-19 CNS
M14 melanoma = tested on: M14 melanoma
786-0 renal = tested on: 786-0 renal
ACHN renal = tested on: ACHN renal
LOX IMVI melanoma = tested on: LOX IMVI melanoma
CAKI-1 renal = tested on: CAKI-1 renal
COLO 205 colon = tested on: COLO 205 colon
MALME-3M melanoma = tested on: MALME-3M melanoma
SK-OV-3 ovarian = tested on: SK-OV-3 ovarian

COc1ccccc1CNCc1nc2ccccc2[nH]1
TGI (MOLT-4 leukemia): > 100 µM | TGI (SK-MEL-28 melanoma): > 100 µM | TGI (OVCAR-8 ovarian): > 100 µM | TGI (MDA-MB-231 breast): > 100 µM | TGI (NCI-H522 lung): > 100 µM | TGI (UO-31 renal): > 100 µM | TGI (HCT-116 colon): > 100 µM | TGI (SW-620 colon): > 100 µM | TGI (NCI/ADR-RES ovarian): > 100 µM | TGI (EKVX NSCLC): > 100 µM | TGI (RXF 393 renal): > 100 µM | TGI (U251 CNS): > 100 µM | TGI (SNB-75 CNS): > 100 µM | TGI (UACC-62 melanoma): > 100 µM | TGI (HOP-92 NSCLC): > 100 µM | TGI (OVCAR-4 ovarian): > 100 µM | TGI (SK-MEL-2 melanoma): > 100 µM | TGI (HS 578T breast): > 100 µM | TGI (MCF7 breast): > 100 µM | TGI (HL-60(TB) leukemia): > 100 µM | TGI (SF-539 CNS): > 100 µM | TGI (NCI-H460 lung): > 100 µM | TGI (MDA-N): > 100 µM | TGI (MDA-MB-435): > 100 µM | TGI (UACC-257 melanoma): > 100 µM | TGI (NCI-H226 lung): > 100 µM | TGI (A498 renal): > 100 µM | TGI (IGROV1 ovarian): > 100 µM | TGI (OVCAR-3 ovarian): > 100 µM | TGI (HCT-15 colon): > 100 µM | TGI (TK-10 renal): > 100 µM | TGI (KM12 colon): > 100 µM | TGI (SF-268 CNS): > 100 µM | TGI (A549 NSCLC): > 100 µM | TGI (RPMI-8226 leukemia): > 100 µM | TGI (NCI-H23 lung): > 100 µM | TGI (SN12C renal): > 100 µM | TGI (SR leukemia): > 100 µM | TGI (T-47D breast): > 100 µM | TGI (CCRF-CEM leukemia): > 100 µM | TGI (SF-295 CNS): > 100 µM | TGI (DU-145 prostate): > 100 µM | TGI (K-562 leukemia): > 100 µM | TGI (PC-3 prostate): > 100 µM | TGI (SK-MEL-5 melanoma): > 100 µM | TGI (OVCAR-5 ovarian): > 100 µM | TGI (BT-549 breast): > 100 µM | TGI (HOP-62 NSCLC): > 100 µM | TGI (HCC-2998 colon): > 100 µM | TGI (HT29 colon): > 100 µM | TGI (SNB-19 CNS): > 100 µM | TGI (M14 melanoma): > 100 µM | TGI (786-0 renal): > 100 µM | TGI (ACHN renal): > 100 µM | TGI (LOX IMVI melanoma): > 100 µM | TGI (CAKI-1 renal): > 100 µM | TGI (COLO 205 colon): > 100 µM

CCOC(=O)Oc1cc2c(ccn2C)c2c1c1ccccc1n2C(=O)OCC
TGI (MOLT-4 leukemia): > 100 µM | TGI (MALME-3M melanoma): > 100 µM | TGI (SK-MEL-28 melanoma): > 100 µM | TGI (OVCAR-8 ovarian): > 100 µM | TGI (MDA-MB-231 breast): > 100 µM | TGI (NCI-H522 lung): > 100 µM | TGI (UO-31 renal): > 100 µM | TGI (HCT-116 colon): > 100 µM | TGI (SW-620 colon): > 100 µM | TGI (NCI/ADR-RES ovarian): > 100 µM | TGI (EKVX NSCLC): > 100 µM | TGI (RXF 393 renal): > 100 µM | TGI (U251 CNS): > 100 µM | TGI (SNB-75 CNS): > 100 µM | TGI (UACC-62 melanoma): > 100 µM | TGI (HOP-92 NSCLC): > 100 µM | TGI (OVCAR-4 ovarian): > 100 µM | TGI (SK-MEL-2 melanoma): > 100 µM | TGI (HS 578T breast): > 100 µM | TGI (MCF7 breast): > 100 µM | TGI (SF-539 CNS): > 100 µM | TGI (NCI-H460 lung): > 100 µM | TGI (MDA-N): > 100 µM | TGI (MDA-MB-435): > 100 µM | TGI (UACC-257 melanoma): > 100 µM | TGI (NCI-H226 lung): > 100 µM | TGI (A498 renal): > 100 µM | TGI (IGROV1 ovarian): > 100 µM | TGI (OVCAR-3 ovarian): > 100 µM | TGI (HCT-15 colon): > 100 µM | TGI (TK-10 renal): > 100 µM | TGI (KM12 colon): > 100 µM | TGI (SF-268 CNS): > 100 µM | TGI (A549 NSCLC): > 100 µM | TGI (RPMI-8226 leukemia): > 100 µM | TGI (NCI-H23 lung): > 100 µM | TGI (SN12C renal): > 100 µM | TGI (SR leukemia): > 100 µM | TGI (T-47D breast): > 100 µM | TGI (CCRF-CEM leukemia): > 100 µM | TGI (SF-295 CNS): > 100 µM | TGI (DU-145 prostate): > 100 µM | TGI (K-562 leukemia): > 100 µM | TGI (PC-3 prostate): > 100 µM | TGI (SK-MEL-5 melanoma): > 100 µM | TGI (SK-OV-3 ovarian): > 100 µM | TGI (OVCAR-5 ovarian): > 100 µM | TGI (BT-549 breast): > 100 µM | TGI (HOP-62 NSCLC): > 100 µM | TGI (HT29 colon): > 100 µM | TGI (M14 melanoma): > 100 µM | TGI (786-0 renal): > 100 µM | TGI (ACHN renal): > 100 µM | TGI (LOX IMVI melanoma): > 100 µM | TGI (CAKI-1 renal): > 100 µM | TGI (COLO 205 colon): > 100 µM

CN(C)CCN1C(=O)c2ccccc2C1(O)c1ccc(Cl)cc1 (stereo not given)
TGI (MOLT-4 leukemia): > 100 µM | TGI (MALME-3M melanoma): 70.7 µM | TGI (SK-MEL-28 melanoma): > 100 µM | TGI (OVCAR-8 ovarian): > 100 µM | TGI (MDA-MB-231 breast): > 100 µM | TGI (UO-31 renal): > 100 µM | TGI (HCT-116 colon): > 100 µM | TGI (SW-620 colon): > 100 µM | TGI (NCI/ADR-RES ovarian): > 100 µM | TGI (EKVX NSCLC): > 100 µM | TGI (RXF 393 renal): 77.5 µM | TGI (U251 CNS): > 100 µM | TGI (SNB-75 CNS): > 100 µM | TGI (UACC-62 melanoma): > 100 µM | TGI (OVCAR-4 ovarian): > 100 µM | TGI (HS 578T breast): > 100 µM | TGI (MCF7 breast): > 100 µM | TGI (HL-60(TB) leukemia): > 100 µM | TGI (NCI-H460 lung): > 100 µM | TGI (MDA-N): > 100 µM | TGI (MDA-MB-435): > 100 µM | TGI (UACC-257 melanoma): 63.9 µM | TGI (NCI-H226 lung): > 100 µM | TGI (IGROV1 ovarian): > 100 µM | TGI (OVCAR-3 ovarian): > 100 µM | TGI (HCT-15 colon): > 100 µM | TGI (TK-10 renal): > 100 µM | TGI (KM12 colon): > 100 µM | TGI (SF-268 CNS): > 100 µM | TGI (A549 NSCLC): > 100 µM | TGI (RPMI-8226 leukemia): > 100 µM | TGI (NCI-H23 lung): > 100 µM | TGI (SN12C renal): > 100 µM | TGI (T-47D breast): > 100 µM | TGI (CCRF-CEM leukemia): > 100 µM | TGI (SF-295 CNS): > 100 µM | TGI (DU-145 prostate): > 100 µM | TGI (K-562 leukemia): > 100 µM | TGI (PC-3 prostate): > 100 µM | TGI (SK-MEL-5 melanoma): 67.2 µM | TGI (SK-OV-3 ovarian): > 100 µM | TGI (OVCAR-5 ovarian): > 100 µM | TGI (BT-549 breast): > 100 µM | TGI (HOP-62 NSCLC): > 100 µM | TGI (HCC-2998 colon): > 100 µM | TGI (HT29 colon): > 100 µM | TGI (SNB-19 CNS): > 100 µM | TGI (M14 melanoma): > 100 µM | TGI (786-0 renal): > 100 µM | TGI (ACHN renal): > 100 µM | TGI (CAKI-1 renal): > 100 µM | TGI (COLO 205 colon): > 100 µM
